Series [1] deals with T1, human iNOS (Homo sapiens, UniProt P35228).
T1 construct: A full length iNOS cDNA was assembled from the products of the four PCR reactions; made in house; host or cells: E. coli JS5
Briefly: iNOS activity: conversion of radioactive arginine to citrulline. The class given is biochemical. As to conditions: for dependence of activity on iNOS cofactors: crude cell extract; for NOS activity without calmodulin coexpression: expression in E. coli.
Experimental: iNOS activity was measured by the conversion of radioactive arginine to citrulline similar to that described by Bredt and Snyder (Proc. Natl. Acad. Sci. USA, 1989, 86:9030-9033). Reactions contained 20 mM HEPES pH 7.5, 1 mM DTT, 10 μM FAD, 10 μM FMN, 20 μM THB, 2 μM hemin, 1 mM NADPH, 2 mg/ml BSA, 50 μM cold arginine and 1 μM ^3 H-arginine (60 Ci/mmole; Amersham). […] The reaction mix was then passed through 100 μl of Dowex resin (AG50-X8) in a filtration plate to separate citrulline (unbound) from arginine (bound). The filtrate was counted with one volume of scintillation fluid in 1450 Microbeta Plus liquid scintillation counter (Wallac). Enough enzyme is used per assay point to convert 10-20% of the tritiated arginine to product. Activities of various cell extracts examined are reported in units/ml, units defined as pmoles of citrulline formed per minute. Samples of E coli cell lysate expressing iNOS activity were desalted on a G-25 column prior to assay to remove any cold arginine.
NOS assays were performed as described above, except 1 μM undiluted labeled arginine was used. When calmodulin was used it was added at 10 μg/ml.
The iNOS activity in the crude cell extract was further characterized by a number of criteria.
Cells were broken and processed for activity, as described, except that THB was not added. The assay was then run with varying amounts of THB.

Series [2] has as its target T1, human iNOS. Briefly: retention of iNOS activity on overnight storage. The format is physicochemical. How it is done: Breakage of cells and the ammonium sulfate fractionations were done in the presence of 10 μM FAD, 10 μM FMN, 2 μM THB, and 2 μM hemin. Leaving these cofactors out of the breaking buffer had no effect on the level of iNOS activity. […] Flavins were omitted after the 40% ammonium sulfate fractionation since they bind tightly to Q Sepharose. CHAPS detergent was included for the Q Sepharose column because iNOS fractionated poorly from the bulk of the protein in its absence. The yield of iNOS from about 20 liters of cells (32 g starting protein in the crude extract) was about 30-40 mg.

Series [3] deals with rat bNOS. The settings on record: Klatt et al., 1994, cited from earlier work.
Series [4] relates to rat bNOS. As to conditions: cited from earlier work.
The test system of a further series is murine iNOS. The settings on record: 1991, cited from earlier work.

We go through 13 compounds from patent US5744340A, “Expression of human inducible nitric oxide synthase” (Schering Corporation, priority 1995, dated 1998).

pEC50, pIC50, pKd: −log10 of the molar value. Values joined by “and” are separate entries in the source; they are usually repeats but may differ in a detail not shown here. Equal entries are not always repeated. Where two headings read alike, the source gives them in different places.

T1 sequence (P35228 whole entry): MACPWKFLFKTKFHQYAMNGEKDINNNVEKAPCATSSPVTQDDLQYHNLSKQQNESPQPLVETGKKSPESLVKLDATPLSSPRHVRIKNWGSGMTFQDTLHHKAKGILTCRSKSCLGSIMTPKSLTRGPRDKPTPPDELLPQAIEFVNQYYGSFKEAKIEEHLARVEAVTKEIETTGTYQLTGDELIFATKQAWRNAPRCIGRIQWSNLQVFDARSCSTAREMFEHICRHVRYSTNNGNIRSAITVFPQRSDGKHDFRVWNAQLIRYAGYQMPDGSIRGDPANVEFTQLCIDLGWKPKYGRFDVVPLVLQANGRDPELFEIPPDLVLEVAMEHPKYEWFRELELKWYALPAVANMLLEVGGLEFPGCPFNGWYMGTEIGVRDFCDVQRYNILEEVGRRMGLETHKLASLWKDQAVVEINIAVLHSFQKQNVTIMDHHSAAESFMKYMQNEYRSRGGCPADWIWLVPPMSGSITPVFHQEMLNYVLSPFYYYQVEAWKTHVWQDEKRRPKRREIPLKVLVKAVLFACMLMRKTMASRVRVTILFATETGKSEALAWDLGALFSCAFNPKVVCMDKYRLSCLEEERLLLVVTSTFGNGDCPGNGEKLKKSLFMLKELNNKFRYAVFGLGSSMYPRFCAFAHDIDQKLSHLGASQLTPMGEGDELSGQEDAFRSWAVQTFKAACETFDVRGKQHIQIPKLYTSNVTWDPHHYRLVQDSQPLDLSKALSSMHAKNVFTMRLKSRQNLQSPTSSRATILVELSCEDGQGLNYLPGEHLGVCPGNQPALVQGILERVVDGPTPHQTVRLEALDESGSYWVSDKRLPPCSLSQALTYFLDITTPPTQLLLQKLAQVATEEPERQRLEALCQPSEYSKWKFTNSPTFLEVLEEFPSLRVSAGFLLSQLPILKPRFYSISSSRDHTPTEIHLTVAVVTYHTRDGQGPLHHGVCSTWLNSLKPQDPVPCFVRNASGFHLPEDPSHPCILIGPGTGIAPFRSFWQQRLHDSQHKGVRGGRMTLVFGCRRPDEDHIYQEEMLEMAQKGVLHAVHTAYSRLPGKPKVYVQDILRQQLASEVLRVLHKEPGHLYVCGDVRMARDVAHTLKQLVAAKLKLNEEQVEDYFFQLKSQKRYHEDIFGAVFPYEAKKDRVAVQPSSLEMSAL

For the compound calmodulin, the “effect of addition of calmodulin on NOS activity” value on human iNOS [1] (FIG. 2, coexpression extracts, calmodulin 10 μg/ml, 1 μM undiluted labeled arginine) is “no effect”. The “effect of addition on iNOS activity” value at human iNOS [1] (calcium +10 mg/ml calmodulin) is given as “unaffected”. The “effect of calmodulin in the NOS assay” value on human iNOS [1] (iNOS expressed in E. coli without coexpression of calmodulin) is given as “no effect”.

In the case of hemin [reference compound], at human iNOS [1], the “dependence of activity on iNOS cofactors” value was “no dependence”.

For the compound “human iNOS: human inducible nitric oxide synthase expressed in E. coli, coexpressed with human calmodulin”, the “Specific Activity” value in the series with human iNOS [1] (40% ammonium sulfate ppt) is 19,600 units/mg; in the series with human iNOS [1] (Q Sepharose pool), 149,000 units/mg; with human iNOS [1] (S300 pool) it was 317,000 units/mg; with human iNOS [1] (cell lysate), 2,420 units/mg. Also, the “specific activity compared with murine iNOS” value in the series with human iNOS [1] (E. coli expressed iNOS) was “approximately the same specific activity”. Besides, the “level of activity with coexpression relative to without coexpression” value with human iNOS [1] (FIG. 2, average of three assays) was over 100 fold. In addition, in the series with human iNOS [1] (crude extract), the “activity with coexpression of calmodulin” value is 3000-5000 units/mg. Besides, the “NOS activity without calmodulin coexpression” value was “barely detectable above background” with human iNOS [1] and “barely detectable above the E. coli negative control” with human iNOS [1] (listed as iNOS). Besides, the “specific activity of iNOS in the crude cell supernatant” value with human iNOS [1] (iNOS amount estimated from SDS gel against BSA control) is given as 500-1000 nmoles citrulline/min/mg of iNOS. The “specific activity of the most pure material” value with human iNOS [1] (leading edge of the S300 column, >95% pure) is 450,000 units/mg. The “activity after overnight storage” value in the series with human iNOS [2] (absence of cofactors (FAD, FMN, THB, hemin)) was “half of the activity was lost”; with human iNOS [2] (presence of cofactors (10 μM FAD, 10 μM FMN, 2 μM THB, 2 μM hemin)) it was “complete activity was retained”.

With `C[C@H](O)[C@H](O)[C@H]1CNc2nc(N)[nH]c(=O)c2N1` [THB, tetrahydrobiopterin, reference compound], the pKd on rat bNOS [3] (read-out: Kd for THB binding to rat bNOS) was about 7.40; at rat bNOS [3] (in the absence of 100 μM arginine, read-out: binding constant of THB for bNOS), 6.60; on rat bNOS [3] (in the presence of 100 μM arginine, read-out: binding constant of THB for bNOS) it was 7.43. The “dependence of enzyme activity on added THB” value at human iNOS [1] (E. coli expressed iNOS) is on record as “completely dependent”. The pEC50 at human iNOS [1] (FIG. 4, cells broken without THB, varying THB in assay, read-out: half-maximal activity (THB titration)) was ~6.92 and 6.92. Further, the “effect of THB on NOS activity” value at human iNOS [1] (cells broken in the absence of THB, THB added) is “restores NOS activity”.

In the case of `Cc1cc2nc3c(=O)[nH]c(=O)nc-3n(C[C@H](O)[C@H](O)[C@H](O)COP(=O)(O)O)c2cc1C` [FMN, reference compound], at human iNOS [1], the “dependence of activity on iNOS cofactors” value is reported as “no dependence”.

In the case of `N=C(N)NCCC[C@H](N)C(=O)O` [arginine, L-arginine, reference compound], the “Km for arginine compared with mammalian derived iNOS” value on human iNOS [1] (E. coli expressed iNOS) was “same Km”.

For `O=C(O)CN(CCOCCOCCN(CC(=O)O)CC(=O)O)CC(=O)O` [EGTA, reference compound], the “effect of addition on iNOS activity” value at human iNOS [1] (1 mM EGTA) is reported as “unaffected”.

On to “rat bNOS: rat brain or neuronal nitric oxide synthase”, for which the “specific activity of rat bNOS” value with rat bNOS [4] is 270,000 units/mg.

In the case of `c1c[nH]cn1` [imidazole, reference compound], the pIC50 – broadly, −log10 of the IC50, conventionally taken in molar units – on human iNOS [1] is 3.92.

Regarding `[Ca+2].[Cl-].[Cl-]` [CaCl2, reference compound], the “effect of addition on iNOS activity” value on human iNOS [1] (1 mM CaCl2) was “unaffected”.

`N=C(N)NN` [aminoguanidine, reference compound]: the “IC50's on E. coli-derived compared with 293 cell-derived iNOS” value at human iNOS [1] (FIG. 5, 1 μM labeled arginine, inhibitor 0.01 to 10,000 μM) is “within two-fold of each other on both sources of iNOS”.

For the compound `Cc1cc2nc3c(=O)[nH]c(=O)nc-3n(C[C@H](O)[C@H](O)[C@H](O)COP(=O)(O)OP(=O)(O)OC[C@H]3O[C@@H](n4cnc5c(N)ncnc54)[C@H](O)[C@@H]3O)c2cc1C` [FAD, reference compound], the “dependence of activity on iNOS cofactors” value at human iNOS [1] is “no dependence”.

Regarding “murine iNOS: purified murine inducible nitric oxide synthase (Stuehr et al., 1991)”, the “specific activity of purified murine iNOS” value in the series on murine iNOS (Stuehr et al.) was 1000 nmol/min/mg. The “specific activity of murine iNOS” value with murine iNOS (pure murine iNOS, b61: Stuehr et al.) was 1×10^6 units/mg and 1,000,000 units/mg.
